Here are results for one compound from US20230404969A1, “COMPOSITIONS AND METHOD FOR EFFECTIVE MANAGEMENT OF PERITONITIS” (priority 2022, published 2023).

Molecules are shown by their SMILES.

Test [1] has as its system TNF-α. The test can be described thus: Extracellular in vivo TNF-α estimation in serum from treated mice after LPS injection (ELISA). Particulars: 1 mg/kg p.o for 6 days, serum 90 mins after LPS injection, ↑ upregulation. As to the method:
BALM male mice aged 6-8 weeks were maintained at 22±2° C. under 12/12 h light dark cycle. Mice received oral treatment of test drugs at graded doses (w/v) for 6 days, followed by intravenous injection of 1 mg/kg (Brieva et al. Immunoferon, a glycoconjugate of natural origin, inhibits LPS-induced TNF-α production and inflammatory responses. International Immunopharmacology (2001) 1, 1979-1987). Six mice were employed in each group and experiments were performed in triplicates. Blood was collected from retro-orbital plexus of the experimental animals and serum was separated. TNF-α, IL-1β production was evaluated by a commercial ELISA kit in serum from treated mice, 90 mins after LPS injection.

Test [2] concerns IL-10. The test can be described thus: Cytometric Bead Array of peritoneal fluid, chronic zymosan peritonitis: IL-10. The class given is in vivo, mouse. Particulars: 2 mg/kg, vs Zymosan control. The method, then:
Peritoneal inflammation was induced by Zymosan A (Sigma Chemical) (Masashi et al. Zymosan, but Not Lipopolysaccharide, Triggers Severe and Progressive Peritoneal Injury Accompanied by complement Activation in a Rat Peritonitis Model) was prepared freshly in sterile, 0.9% w/v saline, and 0.5 ml was injected i.p. from day 0 to Day 5. The lymphocyte population in the peripheral blood was determined with a flow cytometer. Cells were phenotyped by flow cytometry with the following primary antibodies: CD4 (FITC) and CD8 (PE). Cells were gated broadly on all live lymphocyte cells, with only debris and multiple cell clusters being excluded. Analysis of mean fluorescence intensity was done and percentage cell population was evaluated. […]
The Cytometric Bead Array (Mouse Inflammation kit) was used to study cytokines in peritoneal fluid. […] Briefly, a mixture of 6 capture bead populations (50 μl) with distinct fluorescence intensities (detected in FL3) coated with antibodies specific for the above cytokines was mixed with each sample/standard (50 μl). […] Following acquisition of data by two colour cytometric analysis, the sample results were analysed using CBA software (BD Biosciences). […] Individual cytokine concentration ratios were indicated by their fluorescent intensities and was determined by interpolation from the corresponding standard curve.

Test [3] concerns Enterococcus faecalis (Gram positive). The test is described as follows: Bacterial translocation from the gut into organs: E. faecalis. In kind it is in vivo. Particulars: Withanone 2 mg/kg; positive/6 mice. The method, then: (§1) Peritoneal inflammation was induced by Zymosan A (Sigma Chemical) (Masashi et al. Zymosan, but Not Lipopolysaccharide, Triggers Severe and Progressive Peritoneal Injury Accompanied by complement Activation in a Rat Peritonitis Model) was prepared freshly in sterile, 0.9% w/v saline, and 0.5 ml was injected i.p. from day 0 to Day 5. The lymphocyte population in the peripheral blood was determined with a flow cytometer. Cells were phenotyped by flow cytometry with the following primary antibodies: CD4 (FITC) and CD8 (PE). Cells were gated broadly on all live lymphocyte cells, with only debris and multiple cell clusters being excluded. Analysis of mean fluorescence intensity was done and percentage cell population was evaluated. The test drugs were administered for 30 days after the induction of peritonitis. On 36th day the peritoneal cavity was lavaged with 1.5 ml saline, and after a 30-s gentle manual massage, 0.5 ml exudate was retrieved, centrifuged at 3000 g for 3 min, and frozen at […] prior to cytokine and chemotactic-factor assessment.
Intestine serves as a barrier in preventing gut bacteria and/or endotoxin from spreading to organs and tissues. It is also known that bacterial translocation occurs in critically ill or immunocompromised patients, and the physical disruption of mucosal barrier in vivo rodent models seem to be a key factor Tor translocation (Deitch et al. Effect of hemorrhagic shock on bacterial translocation, intestinal morphology, and intestinal permeability in conventional and antibiotic-decontaminated rats; Critical Care Medicine; 1990 18(5)). Bacterial translocation from the gut into the peritoneal cavity and organs was analyzed. The mesenteric lymph nodes, liver, and spleen of mice, study group of 30, were removed using sterile instruments. The organs were then homogenized in 1 ml of sterile cooked meat broth and 50 μl of organ homogenate was spread on blood agar plates to detect aerobic bacteria and Eosin Methylene blue agar plates to detect specially for E. coli. These plates were then incubated at 37° C. for 2 days. […]

Test [4] concerns Membrane attack complex (MAC). The test can be described thus: Membrane attack complex in peritoneal exudate (ELISA), chronic zymosan peritonitis. In kind it is in vivo, mouse. Particulars: 2 mg/kg, day 36. As to the method: as §1
Assembly of Membrane attack complex (MAC) results from the complex pathway starting from C5 convertase cleaving C5 to form C5a and C5b. […] The protein concentrations were carried out by means of colorimetric measurement at 450 nm on an ELISA plate reader by interpolation from a standard curve. […]
Background: ELISA stands for enzyme-linked immunosorbent assay.

Test [5] relates to Procalcitonin. The test is described as follows: Procalcitonin in serum (ELISA), chronic zymosan peritonitis. The class given is in vivo, mouse. Particulars: 2 mg/kg. As to the method:
as §1
Procalcitonin is a precursor for calcitonin, a peptide hormone involved in calcium homeostasis. In response to pro-inflammatory stimulus of bacterial origin, the procalcitonin level rises. The blood was collected from retro-orbital plexus from the animals of all groups. The blood was allowed to stand for 2 hrs without addition of anti-coagulant. […]

In the case of `CC1=C(C)C(=O)O[C@@H]([C@@H](C)[C@@]2(O)CC[C@H]3[C@@H]4[C@@H]5O[C@@H]5[C@@]5(O)CC=CC(=O)[C@]5(C)[C@H]4CC[C@@]32C)C1` [Withanone], the “Percentage TNF-α inhibition compared to LPS control” value in test [1] is 37.05%. Further, the “Inhibition of IL-10” value in test [2] is recorded as 52%. Also, in test [3], the “Bacterial translocation, Liver, E. faecalis” value was 1/6; the “Bacterial translocation, Mesenteric Lymph Nodes, E. faecalis” value is listed as 2/6; the “Bacterial translocation, Spleen, E. faecalis” value is 0/6. Further, in test [4], the “Decrease of expression levels of MAC compared to the Zymosan control” value is on record as 56%. In addition, in test [5], the “Decrease of expression level of procalcitonin compared to the Zymosan control” value is recorded as about 60%.
